Measured values from patent US20040009464A1, “Methods for identifying compounds for inhibition of neoplastic lesions, and pharmacetical compositions containing such compounds” (priority 1998, published 2004).

Columns and labels:
HT-29 cells = test: Apoptosis and necrosis by morphology (acridine orange/ethidium bromide) in HT-29 cells; format: cell-based, human; details: HT-29 treated for six days
Text: Apoptosis occurs naturally during normal tissue turnover and during embryonic development of organs and limbs. Apoptosis also is induced by cytotoxic T-lymphocytes and natural killer cells, by ionizing radiation and by certain chemotherapeutic drugs. Inappropriate regulation of apoptosis is thought to play an important role in many pathological conditions including cancer, AIDS, or Alzheimer's disease, etc. Compounds can be screened for induction of apoptosis using cultures of tumor cells maintained under conditions as described above. Treatment of cells with test compounds involves either pre- or post-confluent cultures and treatment for two to seven days at various concentrations. Apoptotic cells are measured in both the attached and “floating” compartments of the cultures. Both compartments are collected by removing the supernatant, trypsinizing the attached cells, and combining both preparations following a centrifugation wash step (10 minutes, 2000 rpm). The protocol for treating tumor cell cultures with sulindac and related compounds to obtain a significant amount of apoptosis has been described in the literature. […]
The apoptosis inducing activity for a series of phosphodiesterase inhibitors was determined. […] Apoptosis and necrosis were determined morphologically after acridine orange and ethidium bromide labeling in accordance with the assay described, supra.

[1] = test system: PKG in SW480 colon cancer cells; test: PKG activity assay on lysates of drug-treated SW480 cells; format: cell-based, human; details: SW480, 48 hrs, with and without added cGMP
Text: That sequence is known and described in the literature below. […] One way to bind the PDE5 sequences to a solid phase is to express those sequences as a fusion protein of the PDE5 sequence and one member of an amino acid binding pair, and chemically link the other member of that amino acid binding pair to a solid phase (e.g., beads). One binding pair that can be used is glutathione S-transferase (“GST”) and glutathione (“GSH”), with the GST being expressed as a fusion protein with the PDE5 sequence described above, and the GSH bound covalently to the solid phase. In this fashion, the PDE5 sequence/GST fusion protein can be bound to a solid phase simply by passing a solution containing the fusion protein over the solid phase, as described below.
To assay a liquid sample believed to contain PKG using the PDE5-bound solid phase described above, the sample and the solid phase are mixed with phosphorylation buffer containing ^32P-γ-ATP. The solution is incubated for 30 minutes at 30° C. to allow for phosphorylation of the PDE5 sequence by PKG to occur, if PKG is present. […]
For each control or drug cell lysate sample to be evaluated, the reaction is started by adding phosphorylation buffer containing 10 μCi ^32P-γ-ATP solution (200 μM ATP, 4.5 mM MgCl; 5 mM KH2PO4; 5 mM K2HPO4;) to each mixture. […]

CC1=C(CC(=O)O)c2cc(F)ccc2/C1=C\c1ccc(S(C)(=O)=O)cc1 [Exisulind, 5-fluoro-2-methyl-1-(p-methylsulfonylbenzylidene)-3-indenylacetic acid]
apoptotic and necrotic cell death (HT-29 cells): capable of causing apoptotic cell death without inducing necrosis
PKG activity relative to control [1]: causes PKG activity to increase in a dose-dependent manner
